# According to patent US7504513B2, “Thiazolyl-benzimidazoles” (Hoffman-La Roche Inc., priority 2006, dated 2009):
# Biological target: T1, GST-Plk1 (Homo sapiens, UniProt P53350)
# T1 construct: Full-length, active GST-Plk1 was purified from Sf9 insect cells; made in house; host or cells: Sf9 insect cells
# Experiment: Biochemical Characterization Assay: HTRF kinase assay, GST-Plk1 phosphorylation of GST-p53
# Conditions: full-length active GST-Plk1, GST-p53 substrate, ATP, 37° C. for 35 minutes, HTRF signal
# Protocol: Full-length, active GST-Plk1 was purified from Sf9 insect cells, and full-length GST-p53 was purified in E. coli. Anti-phospho p53 antibody was purchased from Cell Signaling Technology. Europium-conjugated anti-rabbit antibody was purchased from PerkinElmer Life and Analytical Sciences. APC-conjugated anti-GST antibody was purchased from Prozyme.
# To two microliters of compound (0.6 nM-4 mM) in DMSO or plain DMSO for control wells, 38 microliters of 20 mM HEPES pH 7, 50 mM NaCl, 10 mM MgCl2, 0.5 mM TCEP, 0.1 mM sodium orthovanadate, 0.1 mg/ml BSA, and 0.05% Triton X-100 (Kinase Assay Buffer) were added. Eight microliters of the compound solution were added to a 384-well black microtiter plate, followed by six microliters of GST-p53 (17 ug/ml) and ATP (333 uM) in Kinase Assay Buffer. Six microliters of GST-Plk1 (3 ug/ml) in Kinase Assay Buffer were then added and the solution incubated at 37° C. for 35 minutes. Six microliters of solution containing 43 mM EDTA to stop the reaction and a 1:600 dilution of anti-phospho-p53 antibody in 20 mM HEPES pH 7, 50 mM NaCl, and 0.5 mg/ml BSA (Antibody Binding Buffer) were added and the solution incubated at 37° C. for 30 minutes. Six microliters of solution containing 9 nM europium-conjugated anti-rabbit antibody and 120 nM APC-conjugated anti-GST antibody in Antibody Binding Buffer were then added and the mixture incubated at room temperature for 1.5 hours. The HTRF signal was read on the Envision reader (PerkinElmer Life and Analytical Sciences).
# T1 sequence (P53350 whole entry): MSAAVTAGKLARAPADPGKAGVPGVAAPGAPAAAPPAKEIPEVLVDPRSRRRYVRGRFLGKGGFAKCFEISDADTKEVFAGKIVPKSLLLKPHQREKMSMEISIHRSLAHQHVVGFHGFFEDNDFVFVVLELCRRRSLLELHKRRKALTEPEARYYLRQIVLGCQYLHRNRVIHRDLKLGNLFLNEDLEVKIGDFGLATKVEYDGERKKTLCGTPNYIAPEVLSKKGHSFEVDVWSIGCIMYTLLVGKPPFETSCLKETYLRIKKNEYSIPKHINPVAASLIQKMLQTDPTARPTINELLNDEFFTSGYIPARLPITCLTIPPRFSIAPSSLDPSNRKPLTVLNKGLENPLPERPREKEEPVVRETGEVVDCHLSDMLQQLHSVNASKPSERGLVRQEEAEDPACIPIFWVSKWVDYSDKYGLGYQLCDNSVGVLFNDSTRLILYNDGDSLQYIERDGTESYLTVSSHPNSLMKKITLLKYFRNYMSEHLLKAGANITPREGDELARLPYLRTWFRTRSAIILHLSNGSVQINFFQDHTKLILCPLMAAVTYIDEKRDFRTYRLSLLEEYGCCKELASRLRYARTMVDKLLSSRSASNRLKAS
row,SMILES,IC50 [nM]
1,"COc1cc2ncn(-c3nc(-c4cccnc4)c(C(=O)O)s3)c2cc1OC [Example 33, 2-(5,6-Dimethoxy-benzoimidazol-1-yl)-4-pyridin-3-yl-thiazole-5-carboxylic acid]",4410
2,"COc1cc2ncn(-c3nc(-c4ccccc4)c(C(=O)Nc4ccccc4)s3)c2cc1OC [Example 38, 2-(5,6-Dimethoxy-benzoimidazol-1-yl)-4-phenyl-thiazole-5-carboxylic acid phenylamide]",606
3,"O=C(O)c1sc(-n2cnc3cc(O)c(O)cc32)nc1-c1ccccc1 [Example 39, 2-(5,6-Dihydroxybenzoimidazol-1-yl)-4-phenyl-thiazole-5-carboxylic acid]",2020
4,"C=Cc1cccc(-c2nc(-n3cnc4cc(OC)c(OC)cc43)sc2C(=O)O)c1 [Example 40, 2-(5,6-Dimethoxy-benzoimidazol-1-yl)-4-(3-vinyl-phenyl)-thiazole-5-carboxylic acid]",102
5,"COc1cc2ncn(-c3nc(-c4cccc(Br)c4)c(C(=O)O)s3)c2cc1OC [Example 42, 4-(3-Bromo-phenyl)-2-(5,6-dimethoxy-benzoimidazol-1-yl)-thiazole-5-carboxylic acid]",40
6,"COc1cc2ncn(-c3nc(-c4ccc(C(F)(F)F)c(Cl)c4)c(C(=O)O)s3)c2cc1OC [Example 45, 4-(3-Chloro-4-trifluoromethyl-phenyl)-2-(5,6-dimethoxy-benzoimidazol-1-yl)-thiazole-5-carboxylic acid]",354
7,"COc1cc2ncn(-c3nc(-c4ccc(F)c(F)c4)c(C(=O)O)s3)c2cc1OC [Example 47, 4-(3,4-Difluoro-phenyl)-2-(5,6-dimethoxy-benzoimidazol-1-yl)-thiazole-5-carboxylic acid]",542
8,"COc1cc2ncn(-c3nc(-c4cccc(CO)c4)c(C(=O)O)s3)c2cc1OC [Example 49, 2-(5,6-Dimethoxy-benzoimidazol-1-yl)-4-(3-hydroxymethyl-phenyl)-thiazole-5-carboxylic acid]",1080
9,"C=Cc1ccc(-c2nc(-n3cnc4cc(OC)c(OC)cc43)sc2C(=O)O)cc1 [Example 51, 2-(5,6-Dimethoxy-benzoimidazol-1-yl)-4-(4-vinyl-phenyl)-thiazole-5-carboxylic acid]",2670
10,"COc1cc2ncn(-c3nc(-c4cccc(Cl)c4)c(C(=O)Nc4ccncn4)s3)c2cc1OC [Example 54, 4-(3-Chloro-phenyl)-2-(5,6-dimethoxy-benzoimidazol-1-yl)-thiazole-5-carboxylic acid pyrimidin-4-ylamide]",47
11,"COc1cccc(NC(=O)c2sc(-n3cnc4cc(OC)c(OC)cc43)nc2-c2cccc(Cl)c2)c1 [Example 55, 4-(3-Chloro-phenyl)-2-(5,6-dimethoxy-benzoimidazol-1-yl)-thiazole-5-carboxylic acid (3-methoxy-phenyl)-amide]",250
12,"COc1cc2ncn(-c3nc(-c4cccc(Cl)c4)c(C(=O)Nc4cc[nH]c(=O)n4)s3)c2cc1OC [Example 60, 4-(3-Chloro-phenyl)-2-(5,6-dimethoxy-benzoimidazol-1-yl)-thiazole-5-carboxylic acid (2-oxo-1,2-dihydro-pyrimidin-4-yl)-amide]",4430
13,"O=C(O)c1sc(-n2cnc3cccc(O)c32)nc1-c1ccccc1 [Example 61, 2-(7-Hydroxy-benzoimidazol-1-yl)-4-phenyl-thiazole-5-carboxylic acid]",4680
14,"COc1ccc2c(c1)ncn2-c1nc(-c2ccccc2)c(C(=O)O)s1 [Example 62, 2-(5-Methoxy-benzoimidazol-1-yl)-4-phe-nyl-thiazole-5-car-boxylic acid]",261

# Second part, the compound after the results:
row,IC50 [nM],SMILES
1,211,"COc1cc2ncn(-c3nc(-c4cccc(O)c4)c(C(=O)O)s3)c2cc1OC [Example 34, 2-(5,6-Dimethoxy-benzoimidazol-1-yl)-4-(3-hydroxy-phenyl)-thiazole-5-carboxylic acid]"
2,431,"COc1cc2ncn(-c3nc(-c4cccc(Cl)c4)c(C(N)=O)s3)c2cc1OC [Example 36, 4-(3-Chloro-phenyl)-2-(5,6-dimethoxy-benzoimidazol-1-yl)-thiazole-5-carboxylic acid amide]"
3,66,"COc1cc2ncn(-c3nc(-c4cc(Cl)cc(Cl)c4)c(C(=O)O)s3)c2cc1OC [Example 41, 4-(3,5-Dichloro-phenyl)-2-(5,6-dimethoxy-benzoimidazol-1-yl)-thiazole-5-carboxylic acid]"
4,157,"COc1cc2ncn(-c3nc(-c4cccc(C(F)(F)F)c4)c(C(=O)O)s3)c2cc1OC [Example 43, 2-(5,6-Dimethoxy-benzoimidazol-1-yl)-4-(3-trifluoromethyl-phenyl)-thiazole-5-carboxylic acid]"
5,368,"COc1cc2ncn(-c3nc(-c4ccc5c(ccn5C)c4)c(C(=O)O)s3)c2cc1OC [Example 46, 2-(5,6-Dimethoxy-benzoimidazol-1-yl)-4-(1-methyl-1H-indol-5-yl)-thiazole-5-carboxylic acid]"
6,819,"COCCOc1cc2ncn(-c3nc(-c4ccccc4)c(C(=O)O)s3)c2cc1OCCOC [Example 48, 2-[5,6-Bis-(2-methoxy-ethoxy)-benzoimidazol-1-yl]-4-phenyl-thiazole-5-carboxylic acid]"
7,2340,"COc1cc2ncn(-c3nc(-c4ccc5c(c4)OCCO5)c(C(=O)O)s3)c2cc1OC [Example 50, 4-(2,3-Dihydro-benzo[1,4]dioxin-6-yl)-2-(5,6-dimethoxy-benzoimidazol-1-yl)-thiazole-5-carboxylic acid]"
8,8870,"COc1cc2ncn(-c3nc(-c4cccc(C(=O)N(C)C)c4)c(C(=O)O)s3)c2cc1OC [Example 52, 2-(5,6-Dimethoxy-benzoimidazol-1-yl)-4-(3-dimethylcarbamoyl-phenyl)-thiazole-5-carboxylic acid]"
9,18,"COc1cc2ncn(-c3nc(-c4cccc(Cl)c4)c(C(=O)NNC(=O)c4cccs4)s3)c2cc1OC [Example 53, Thiophene-2-carboxylic acid N′-[4-(3-chloro-phenyl)-2-(5,6-dimethoxybenzoimidazol-1-yl)-thiazole-5-carbonyl]-hydrazide]"
10,252,"COc1cc2ncn(-c3nc(-c4cccc(Cl)c4)c(C(=O)Nc4nccs4)s3)c2cc1OC [Example 56, 4-(3-Chloro-phenyl)-2-(5,6-dimethoxy-benzoimidazol-1-yl)-thiazole-5-carboxylic acid thiazol-2-ylamide]"
11,344,"COc1cc2ncn(-c3nc(-c4cccc(Cl)c4)c(C(=O)Nn4cnnc4)s3)c2cc1OC [Example 57, 4-(3-Chloro-phenyl)-2-(5,6-dimethoxy-benzoimidazol-1-yl)-thiazole-5-carboxylic acid [1,2,4]triazol-4-ylamide]"
12,586,"COc1cc2ncn(-c3nc(-c4cccc(Cl)c4)c(C(=O)NNC(=O)c4cccc(C)c4)s3)c2cc1OC [Example 58, 3-Methyl-benzoic acid N′-[4-(3-chloro-phenyl)-2-(5,6-dimethoxy-benzoimidazol-1-yl)-thiazole-5-carbonyl]-hydrazide]"
13,75,"COc1cc2ncn(-c3nc(-c4ccnc(Cl)c4)c(C(=O)O)s3)c2cc1OC [Example 64, 4-(2-Chloro-pyridin-4-yl)-2-(5,6-dimethoxy-benzoimidazol-1-yl)-thiazole-5-carboxylic acid]"
